Assay results as given in US20100056524A1, “Compound” (priority 2008, published 2010).
Where two headings read alike, the source gives them in different places.

Tests used:
[1] = target: T1, P38b MAPK (Homo sapiens, UniProt Q15759); experiment: P38b MAPK protein kinase assay; format: biochemical; settings: for remaining activity at 10 µM: 10 μM compound; for residual kinase activity P38b MAPK: 1 μm compound
T1 construct: All protein kinases were of human origin and encoded full length proteins, unless indicated otherwise; made in house
From the text: (§1) All protein kinases were of human origin and encoded full length proteins, unless indicated otherwise. They were either expressed as glutathione S-transferase (GST) fusion proteins in Escherichia Coli or as hexahistidine (His6)-tagged proteins in insect Sf21 cells. GST fusion proteins were purified by affinity chromatography on glutathione-Sepharose, and His6-tagged proteins on nickel/nitriloacetate-agarose. The procedures for expressing some of the protein kinases used herein have been detailed previously.^8,9 The following sections outline the DNA vectors synthesised and the procedures used to express and purifying protein kinases that have not been reported previously.
(§2) All assays (25.5 μl) were carried out at room temperature (21° C.) and were linear with respect to time and enzyme concentration under the conditions used. Assays were performed for 30 min using Multidrop Micro reagent dispensers (Thermo Electron Corporation, Waltham, Mass. 02454, USA) in a 96-well format. The concentration of magnesium acetate in the assays was 10 mM and the [γ-33P] ATP (800 cpm/pmol) was used at 5, 20 or 50 μM as indicated, in order to be at or below the Km for ATP for each enzyme. Protein kinases assayed at 5 μM ATP were: —ERK1, ERK8, PKBα, MARK3, Aurora C. Protein kinases assayed at 20 μM ATP were: —JNK1, PDK1, CHK1, CHK2, CDK2 and Aurora B. Protein kinases assayed at 50 μM ATP were: —MNK2, IKKepsilon and TBK1.
(§3) The assays were initiated with MgATP, stopped by addition of 5 μl of 0.5 M orthophosphoric acid and spotted on to P81 filterplates using a unifilter harvester (PerkinElmer, Boston, Mass. 02118, USA). The IC50 values of inhibitors were determined after carrying out assays at 10 different concentrations of each compound.
(§4) Unless stated otherwise, enzymes were diluted in 50 mM Tris/HCl pH 7.5, 0.1 mM EGTA, 1 mg/ml BSA, 0.1% (v/v) 2-mercaptoethanol and assayed in 50 mM Tris/HCl pH 7.5, 0.1 mM EGTA, 0.1% (v/v) 2-mercaptoethanol.

[2] = target: T2, BTK (Homo sapiens, UniProt Q06187); experiment: BTK protein kinase assay; format: biochemical; settings: for remaining activity at 10 µM: 10 μM compound; for residual kinase activity BTK: 1 μm compound
T2 construct: All protein kinases were of human origin and encoded full length proteins, unless indicated otherwise; made in house
From the text: as §1, §2, §3, §4

[3] = tested on: SmMLCK; experiment: SmMLCK protein kinase assay; format: biochemical, human; settings: for residual kinase activity: SmMLCK
From the text: as §1, §2, §3, §4

[4] = target: T3, MST2 (Homo sapiens, UniProt Q13188); experiment: MST2 protein kinase assay; format: biochemical; settings: for remaining activity at 10 µM: 10 μM compound; for residual kinase activity MST2: 1 μm compound
T3 construct: All protein kinases were of human origin and encoded full length proteins, unless indicated otherwise; made in house
T3 sequence (Q13188 1-491): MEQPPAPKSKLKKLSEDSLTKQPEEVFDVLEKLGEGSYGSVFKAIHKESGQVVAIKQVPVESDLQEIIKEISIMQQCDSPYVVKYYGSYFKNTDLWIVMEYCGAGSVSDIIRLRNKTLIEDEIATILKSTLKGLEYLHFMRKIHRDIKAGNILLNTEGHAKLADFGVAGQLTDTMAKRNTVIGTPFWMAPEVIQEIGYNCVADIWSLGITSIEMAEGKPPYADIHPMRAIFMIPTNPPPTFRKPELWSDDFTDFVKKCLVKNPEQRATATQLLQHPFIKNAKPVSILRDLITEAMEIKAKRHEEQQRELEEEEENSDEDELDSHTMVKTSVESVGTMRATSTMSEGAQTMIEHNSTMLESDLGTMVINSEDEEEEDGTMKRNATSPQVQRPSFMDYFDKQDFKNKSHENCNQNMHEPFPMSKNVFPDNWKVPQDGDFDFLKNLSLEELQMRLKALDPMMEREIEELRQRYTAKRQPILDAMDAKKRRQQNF
From the text: as §1, §2, §3, §4

[5] = target: T4, CAMKKb (Homo sapiens, UniProt Q96RR4); experiment: CAMKKb protein kinase assay; format: biochemical; settings: for remaining activity at 10 µM: 10 μM compound; for residual kinase activity CAMKKb: 1 μm compound
T4 construct: All protein kinases were of human origin and encoded full length proteins, unless indicated otherwise; made in house
From the text: as §1, §2, §3, §4

[6] = target: T5, MKK1 (Homo sapiens, UniProt Q02750); experiment: MKK1 protein kinase assay; format: biochemical; settings: for remaining activity at 10 µM: 10 μM compound; for residual kinase activity MKK1: 1 μm compound
T5 construct: All protein kinases were of human origin and encoded full length proteins, unless indicated otherwise; made in house
From the text: as §1, §2, §3, §4

[7] = target: T6, JNK2 (Homo sapiens, UniProt P45984); experiment: JNK2 protein kinase assay; format: biochemical; settings: for remaining activity at 10 µM: 10 μM compound; for residual kinase activity JNK2: 1 μm compound
T6 construct: All protein kinases were of human origin and encoded full length proteins, unless indicated otherwise; made in house
From the text: as §1
In order to produce activated forms of Aurora B and Aurora C, insect Sf21 cells were incubated for 1 h with the protein phosphatase inhibitor okadaic acid (50 nM). JNK isoforms were activated with MKK4 and MKK7, MNK2 with p38α MAPkinase; PKBα, PKBβ, with PDK1, and ERK1 with MKK1. To activate CDK2, bacterial pellets expressing cyclin A2 and CDK2 were mixed together, lyse and purified on glutathione Sepharose. The GST-tags were removed by cleavage with PreScission protease and the CDK2-cyclin A2 complex purified by chromatography on SP-Sepharose. It was then activated with CAK1/CDK7 followed by chromatography on nickel-nitrilotriacetate agarose to remove CAK1/CDK7, which binds to this column by virtue of its C-terminal His6 tag. All the other protein kinases were active as expressed.
as §2, §3, §4

[8] = target: T7, FGF-R1 (Homo sapiens, UniProt P11362); experiment: FGF-R1 protein kinase assay; format: biochemical; settings: for remaining activity at 10 µM: 10 μM compound; for residual kinase activity FGF-R1: 1 μm compound
T7 construct: All protein kinases were of human origin and encoded full length proteins, unless indicated otherwise; made in house
From the text: as §1, §2, §3, §4

[9] = target: PKBb (Homo sapiens, UniProt P31751, S474D); experiment: PKBb protein kinase assay
[10] = target: T8, PIM1 (Homo sapiens, UniProt P11309); experiment: PIM1 protein kinase assay; format: biochemical; settings: for remaining activity at 10 µM: 10 μM compound; for residual kinase activity PIM1: 1 μm compound
T8 construct: All protein kinases were of human origin and encoded full length proteins, unless indicated otherwise; made in house
From the text: as §1, §2, §3, §4

[11] = tested on: IR-HIS; experiment: IR-HIS protein kinase assay; format: biochemical, human; settings: for residual kinase activity: IR-HIS
From the text: as §1, §2, §3, §4

[12] = read-out: residual kinase activity P38b MAPK
[13] = read-out: residual kinase activity BTK
[14] = read-out: residual kinase activity MST2
[15] = read-out: residual kinase activity CAMKKb
[16] = read-out: residual kinase activity MKK1
[17] = read-out: residual kinase activity JNK2
[18] = read-out: residual kinase activity FGF-R1
[19] = read-out: residual kinase activity PKBb
[20] = read-out: residual kinase activity PIM1
[21] = read-out: residual kinase activity

T6 sequence (P45984 whole entry): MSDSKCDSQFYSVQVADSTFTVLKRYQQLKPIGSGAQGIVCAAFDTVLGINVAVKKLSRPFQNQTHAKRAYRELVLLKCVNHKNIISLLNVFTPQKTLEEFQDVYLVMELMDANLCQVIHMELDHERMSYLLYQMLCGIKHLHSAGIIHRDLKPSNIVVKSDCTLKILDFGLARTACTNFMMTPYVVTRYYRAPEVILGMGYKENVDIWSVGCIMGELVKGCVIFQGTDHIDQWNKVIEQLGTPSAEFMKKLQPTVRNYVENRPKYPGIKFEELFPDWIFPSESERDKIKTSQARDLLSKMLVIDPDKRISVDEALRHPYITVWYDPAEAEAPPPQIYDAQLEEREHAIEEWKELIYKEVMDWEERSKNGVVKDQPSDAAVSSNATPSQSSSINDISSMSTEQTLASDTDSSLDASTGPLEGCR
T4 sequence (Q96RR4 whole entry): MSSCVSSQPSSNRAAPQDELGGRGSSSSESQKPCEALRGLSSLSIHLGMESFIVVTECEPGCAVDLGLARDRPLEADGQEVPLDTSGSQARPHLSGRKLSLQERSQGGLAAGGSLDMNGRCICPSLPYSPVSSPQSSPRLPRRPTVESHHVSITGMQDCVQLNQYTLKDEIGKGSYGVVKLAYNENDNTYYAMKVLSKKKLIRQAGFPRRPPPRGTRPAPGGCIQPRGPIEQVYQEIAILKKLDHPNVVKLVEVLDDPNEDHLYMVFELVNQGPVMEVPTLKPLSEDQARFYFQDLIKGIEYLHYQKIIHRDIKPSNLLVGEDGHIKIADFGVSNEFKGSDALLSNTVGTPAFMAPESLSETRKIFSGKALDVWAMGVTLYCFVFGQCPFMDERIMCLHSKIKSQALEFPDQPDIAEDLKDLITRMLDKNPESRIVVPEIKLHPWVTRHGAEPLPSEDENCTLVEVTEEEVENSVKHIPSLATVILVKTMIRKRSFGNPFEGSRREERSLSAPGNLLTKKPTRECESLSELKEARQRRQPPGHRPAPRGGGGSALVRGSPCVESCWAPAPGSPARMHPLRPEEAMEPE
T5 sequence (Q02750 whole entry): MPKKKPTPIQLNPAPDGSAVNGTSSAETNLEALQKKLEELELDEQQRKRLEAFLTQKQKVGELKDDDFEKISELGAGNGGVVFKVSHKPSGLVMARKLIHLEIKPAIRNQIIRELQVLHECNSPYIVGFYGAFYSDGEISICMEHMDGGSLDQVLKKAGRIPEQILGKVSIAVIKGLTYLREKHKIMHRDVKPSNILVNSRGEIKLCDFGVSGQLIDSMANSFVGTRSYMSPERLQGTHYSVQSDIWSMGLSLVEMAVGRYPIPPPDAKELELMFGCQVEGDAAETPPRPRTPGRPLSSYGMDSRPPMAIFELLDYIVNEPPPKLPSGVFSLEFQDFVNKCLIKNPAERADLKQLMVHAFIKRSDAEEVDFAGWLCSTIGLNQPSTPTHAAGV
Chain of PKBb (P31751 120-481 S474D): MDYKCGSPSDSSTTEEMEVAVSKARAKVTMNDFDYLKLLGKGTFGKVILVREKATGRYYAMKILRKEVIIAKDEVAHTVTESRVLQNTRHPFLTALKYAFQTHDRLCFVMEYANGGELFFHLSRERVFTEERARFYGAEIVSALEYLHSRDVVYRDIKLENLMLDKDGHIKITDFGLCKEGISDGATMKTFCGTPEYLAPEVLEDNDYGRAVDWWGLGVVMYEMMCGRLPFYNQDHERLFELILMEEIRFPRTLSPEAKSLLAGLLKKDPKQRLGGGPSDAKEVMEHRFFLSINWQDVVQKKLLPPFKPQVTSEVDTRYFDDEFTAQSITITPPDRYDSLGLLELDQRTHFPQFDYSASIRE
T8 sequence (P11309 whole entry): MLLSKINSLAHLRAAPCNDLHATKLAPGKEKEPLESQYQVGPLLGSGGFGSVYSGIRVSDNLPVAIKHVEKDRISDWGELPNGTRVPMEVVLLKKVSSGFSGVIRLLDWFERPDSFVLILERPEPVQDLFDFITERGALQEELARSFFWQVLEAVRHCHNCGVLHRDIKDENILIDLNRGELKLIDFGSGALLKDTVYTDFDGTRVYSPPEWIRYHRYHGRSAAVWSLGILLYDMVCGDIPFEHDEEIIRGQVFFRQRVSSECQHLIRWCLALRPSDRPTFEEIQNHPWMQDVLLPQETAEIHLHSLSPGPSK
T7 sequence (P11362 400-820 limits assumed): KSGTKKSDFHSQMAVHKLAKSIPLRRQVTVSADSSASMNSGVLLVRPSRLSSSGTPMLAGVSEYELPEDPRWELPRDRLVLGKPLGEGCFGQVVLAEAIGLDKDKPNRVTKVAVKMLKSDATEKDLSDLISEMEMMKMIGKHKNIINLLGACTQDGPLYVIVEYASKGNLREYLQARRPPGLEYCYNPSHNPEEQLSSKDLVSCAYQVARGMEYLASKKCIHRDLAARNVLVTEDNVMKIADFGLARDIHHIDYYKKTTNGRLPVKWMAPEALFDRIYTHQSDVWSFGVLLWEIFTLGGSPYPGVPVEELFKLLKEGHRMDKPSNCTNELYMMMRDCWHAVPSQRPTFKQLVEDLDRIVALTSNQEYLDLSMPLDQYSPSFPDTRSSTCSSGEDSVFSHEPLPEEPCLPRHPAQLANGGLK
T2 sequence (Q06187 whole entry): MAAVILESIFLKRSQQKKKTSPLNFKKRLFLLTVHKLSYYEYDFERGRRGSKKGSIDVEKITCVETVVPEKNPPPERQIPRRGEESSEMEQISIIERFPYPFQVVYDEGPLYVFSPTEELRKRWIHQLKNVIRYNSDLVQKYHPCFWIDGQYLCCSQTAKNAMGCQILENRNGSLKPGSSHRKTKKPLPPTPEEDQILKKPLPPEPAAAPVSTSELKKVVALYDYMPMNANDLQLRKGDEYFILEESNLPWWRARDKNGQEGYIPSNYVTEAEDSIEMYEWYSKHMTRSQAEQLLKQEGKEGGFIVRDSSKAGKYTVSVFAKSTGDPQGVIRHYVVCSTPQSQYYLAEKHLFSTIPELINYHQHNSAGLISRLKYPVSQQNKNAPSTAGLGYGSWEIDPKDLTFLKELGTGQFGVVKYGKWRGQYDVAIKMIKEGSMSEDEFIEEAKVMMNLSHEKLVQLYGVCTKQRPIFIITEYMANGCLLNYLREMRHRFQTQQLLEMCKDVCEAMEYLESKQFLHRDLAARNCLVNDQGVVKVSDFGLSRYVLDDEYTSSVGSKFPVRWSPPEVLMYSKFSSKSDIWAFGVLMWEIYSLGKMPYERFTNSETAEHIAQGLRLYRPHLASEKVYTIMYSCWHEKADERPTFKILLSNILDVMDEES
T1 sequence (Q15759 whole entry): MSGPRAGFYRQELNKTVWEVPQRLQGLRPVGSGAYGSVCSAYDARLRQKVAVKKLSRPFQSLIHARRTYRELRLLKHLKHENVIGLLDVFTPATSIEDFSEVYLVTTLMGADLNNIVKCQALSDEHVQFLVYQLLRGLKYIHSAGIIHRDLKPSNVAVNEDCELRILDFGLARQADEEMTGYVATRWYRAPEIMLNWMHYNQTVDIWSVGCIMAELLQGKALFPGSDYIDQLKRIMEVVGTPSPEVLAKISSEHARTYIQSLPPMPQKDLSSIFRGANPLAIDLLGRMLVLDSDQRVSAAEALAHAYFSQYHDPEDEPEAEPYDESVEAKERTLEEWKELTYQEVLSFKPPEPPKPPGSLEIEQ

**Q.** What does the source list for `O=C(NCCCNc1nc(Nc2cccc(F)c2)ncc1Br)C1CCC1` [Compound A, cyclobutanecarboxylic acid {3-[5-bromo-2-(3-fluoro-phenylamino)-pyrimidin-4-ylamino]-propyl}-amide, reference compound]?
**A.** remaining activity at 10 µM [1, 12]: 80%; residual kinase activity P38b MAPK [1]: 96%; remaining activity at 10 µM [2, 13]: 33%; residual kinase activity BTK [2]: 94%; residual kinase activity SmMLCK ([3]; 10 μM compound): 59%; residual kinase activity SmMLCK ([3]; 1 μm compound): 101%; remaining activity at 10 µM [4, 14]: 6%; residual kinase activity MST2 [4]: 29%; remaining activity at 10 µM [5, 15]: 22%; residual kinase activity CAMKKb [5]: 27%; remaining activity at 10 µM [6, 16]: 2%; residual kinase activity MKK1 [6]: 15%; remaining activity at 10 µM [7, 17]: 5%; residual kinase activity JNK2 [7]: 40%; remaining activity at 10 µM [8, 18]: 1%; residual kinase activity FGF-R1 [8]: 17%; remaining activity at 1 µM [9, 19]: 91%; remaining activity at 10 µM [9, 19]: 93%; remaining activity at 10 µM [10, 20]: 50%; residual kinase activity PIM1 [10]: 52%; residual kinase activity IR-HIS ([11]; 10 μM compound): 69%; residual kinase activity IR-HIS ([11]; 1 μm compound): 91%

**Q.** How did the remaining activity at 10 µM [1, 12] turn out when `O=C(NCCCNc1nc(Nc2cccc(F)c2)ncc1C1CC1)C1CCC1` [Example 23, Cyclobutanecarboxylic acid {3-[5-cyclopropyl-2-(3-fluoro-phenylamino)-pyrimidin-4-ylamino]-propyl}-amide] was run?
**A.** 92%

**Q.** What about the “residual kinase activity P38b MAPK” value [1] of the same compound?
**A.** 86%

**Q.** What about the remaining activity at 1 µM ([1]; P38b MAPK, 1 μM compound, read-out: residual kinase activity) of the same compound?
**A.** 86%

**Q.** What about the remaining activity at 10 µM ([1]; P38b MAPK, read-out: residual kinase activity) of the same compound?
**A.** 92%

**Q.** And the remaining activity at 10 µM [2, 13]?
**A.** 25%

**Q.** And the “residual kinase activity BTK” value [2]?
**A.** 74%

**Q.** And the remaining activity at 1 µM ([2]; BTK, 1 μM compound, read-out: residual kinase activity)?
**A.** 74%

**Q.** And the remaining activity at 10 µM ([2]; BTK, read-out: residual kinase activity)?
**A.** 25%

**Q.** And the “residual kinase activity SmMLCK” value ([3]; 10 μM compound)?
**A.** 74%

**Q.** What about the “residual kinase activity SmMLCK” value ([3]; 1 μm compound) of the same compound?
**A.** 72%

**Q.** And the residual kinase activity ([3]; 1 μM compound)?
**A.** 72%

**Q.** And the residual kinase activity ([3]; 10 μM compound)?
**A.** 74%

**Q.** And the remaining activity at 10 µM [4, 14]?
**A.** 33%

**Q.** What about the “residual kinase activity MST2” value [4] of the same compound?
**A.** 73%

**Q.** And the remaining activity at 1 µM ([4]; MST2, 1 μM compound, read-out: residual kinase activity)?
**A.** 73%

**Q.** And the remaining activity at 10 µM ([4]; MST2, read-out: residual kinase activity)?
**A.** 33%

**Q.** And the remaining activity at 10 µM [5, 15]?
**A.** 8%

**Q.** What about the “residual kinase activity CAMKKb” value [5] of the same compound?
**A.** 43%

**Q.** What about the remaining activity at 1 µM ([5]; CAMKKb, 1 μM compound, read-out: residual kinase activity) of the same compound?
**A.** 43%

**Q.** And the remaining activity at 10 µM ([5]; CAMKKb, read-out: residual kinase activity)?
**A.** 8%

**Q.** What about the remaining activity at 10 µM [6, 16] of the same compound?
**A.** 25%

**Q.** And the “residual kinase activity MKK1” value [6]?
**A.** 52%

**Q.** What about the remaining activity at 1 µM ([6]; MKK1, 1 μM compound, read-out: residual kinase activity) of the same compound?
**A.** 52%

**Q.** And the remaining activity at 10 µM ([6]; MKK1, read-out: residual kinase activity)?
**A.** 25%

**Q.** What about the remaining activity at 10 µM [7, 17] of the same compound?
**A.** 55%

**Q.** And the “residual kinase activity JNK2” value [7]?
**A.** 78%

**Q.** And the remaining activity at 1 µM ([7]; JNK2, 1 μM compound, read-out: residual kinase activity)?
**A.** 78%

**Q.** And the remaining activity at 10 µM ([7]; JNK2, read-out: residual kinase activity)?
**A.** 55%

**Q.** And the remaining activity at 10 µM [8, 18]?
**A.** 36%

**Q.** What about the “residual kinase activity FGF-R1” value [8] of the same compound?
**A.** 89%

**Q.** And the remaining activity at 1 µM ([8]; FGF-R1, 1 μM compound, read-out: residual kinase activity)?
**A.** 89%

**Q.** And the remaining activity at 10 µM ([8]; FGF-R1, read-out: residual kinase activity)?
**A.** 36%

**Q.** And the remaining activity at 1 µM [9, 21]?
**A.** 106%

**Q.** And the remaining activity at 10 µM [9, 21]?
**A.** 114%

**Q.** And the remaining activity at 1 µM [9, 19]?
**A.** 106%

**Q.** And the remaining activity at 10 µM [9, 19]?
**A.** 114%

**Q.** And the remaining activity at 10 µM [10, 20]?
**A.** 46%

**Q.** And the “residual kinase activity PIM1” value [10]?
**A.** 78%

**Q.** And the remaining activity at 1 µM ([10]; PIM1, 1 μM compound, read-out: residual kinase activity)?
**A.** 78%

**Q.** What about the remaining activity at 10 µM ([10]; PIM1, read-out: residual kinase activity) of the same compound?
**A.** 46%

**Q.** What about the “residual kinase activity IR-HIS” value ([11]; 10 μM compound) of the same compound?
**A.** 86%

**Q.** What about the “residual kinase activity IR-HIS” value ([11]; 1 μm compound) of the same compound?
**A.** 105%

**Q.** And the residual kinase activity ([11]; 1 μM compound)?
**A.** 105%

**Q.** And the residual kinase activity ([11]; 10 μM compound)?
**A.** 86%
